# Laboratory results from PubChem BioAssay AID2060495 (Molecular Pharmacology Branch, DTP, NCI, 2025).
# pIC50: −log10 of the molar value.
# Test system: 521955-158-R2-J5-PDC complex spheroid viability
# Assay: Anticancer human tumor 521955-158-R2-J5-PDC patient-derived pancreatic carcinoma cell line growth inhibition [GQUAD]
# Settings: for pIC50: curve of first compound; for viability, T/C: stronger effect = lower value
# How it was run: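 Viability of tumor cells grown as complex spheroids with endothelial and stromal cells, exposed to drug combinations. Top concentration at or near clinical Cmax (else 10 microM), diluted in half-log increments.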
# [1] = second compound 0.0316 µM, first compound 0.0316 µM
# [2] = second compound 0.0316 µM, first compound 0.1 µM
# [3] = second compound 0.0316 µM, first compound 0.316 µM
# [4] = second compound 0.0316 µM, first compound 1 µM
# [5] = second compound 0.0316 µM, first compound 3.16 µM
# [6] = second compound 0.0316 µM, first compound 10 µM
# [7] = second compound 0.1 µM, first compound 0.0316 µM
# [8] = second compound 0.1 µM, first compound 0.1 µM
# [9] = second compound 0.1 µM, first compound 0.316 µM
# [10] = second compound 0.1 µM, first compound 1 µM
# [11] = second compound 0.1 µM, first compound 3.16 µM
# [12] = second compound 0.1 µM, first compound 10 µM
# [13] = second compound 0.316 µM, first compound 0.0316 µM
# [14] = second compound 0.316 µM, first compound 0.1 µM
# [15] = second compound 0.316 µM, first compound 0.316 µM
# [16] = second compound 0.316 µM, first compound 1 µM
# [17] = second compound 0.316 µM, first compound 3.16 µM
# [18] = second compound 0.316 µM, first compound 10 µM
# [19] = second compound 1 µM, first compound 0.0316 µM
# [20] = second compound 1 µM, first compound 0.1 µM
# [21] = second compound 1 µM, first compound 0.316 µM
# [22] = second compound 1 µM, first compound 1 µM
# [23] = second compound 1 µM, first compound 3.16 µM
# [24] = second compound 1 µM, first compound 10 µM
# [25] = second compound 3.16 µM, first compound 0.0316 µM
# [26] = second compound 3.16 µM, first compound 0.1 µM
# [27] = second compound 3.16 µM, first compound 0.316 µM
# [28] = second compound 3.16 µM, first compound 1 µM
# [29] = second compound 3.16 µM, first compound 3.16 µM
# [30] = second compound 3.16 µM, first compound 10 µM
# [31] = second compound 10 µM, first compound 0.0316 µM
# [32] = second compound 10 µM, first compound 0.1 µM
# [33] = second compound 10 µM, first compound 0.316 µM
# [34] = second compound 10 µM, first compound 1 µM
# [35] = second compound 10 µM, first compound 3.16 µM
# [36] = second compound 10 µM, first compound 10 µM
# 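Note: spheroids exposed to agents for one week before reading.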
# 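Throughout, for viability, T/C: 100% = DMSO vehicle control viability.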
smiles,measurement,setting,value
CC1COCCN1c1cc(C2(O)CC3CCC(C2)O3)c2cnn(-c3ccn[nH]3)c2n1 (centres undefined) + Cc1cnc(CNC(=O)c2c(=O)c3ccc(N4CCCN(C)CC4)nc3n3c2sc2ccccc23)cn1,pIC50,second compound 0.0316 µM,> 7.50
same,pIC50,second compound 0.1 µM,> 7.50
same,pIC50,second compound 0.316 µM,> 7.50
same,pIC50,second compound 1 µM,> 7.50
same,pIC50,second compound 3.16 µM,> 7.50
same,pIC50,second compound 10 µM,> 7.50
same,"viability, T/C",[1],23.8%
same,"viability, T/C",[2],11.8%
same,"viability, T/C",[3],15.9%
same,"viability, T/C",[4],13.4%
same,"viability, T/C",[5],18.2%
same,"viability, T/C",[6],8.84%
same,"viability, T/C",[7],23.1%
same,"viability, T/C",[8],13%
same,"viability, T/C",[9],11.2%
same,"viability, T/C",[10],13.4%
same,"viability, T/C",[11],15.3%
same,"viability, T/C",[12],8.46%
same,"viability, T/C",[13],23.8%
same,"viability, T/C",[14],14.9%
same,"viability, T/C",[15],12.8%
same,"viability, T/C",[16],14.5%
same,"viability, T/C",[17],15.3%
same,"viability, T/C",[18],5.38%
same,"viability, T/C",[19],18.4%
same,"viability, T/C",[20],13.7%
same,"viability, T/C",[21],11.1%
same,"viability, T/C",[22],12.1%
same,"viability, T/C",[23],10.5%
same,"viability, T/C",[24],4.62%
same,"viability, T/C",[25],14.2%
same,"viability, T/C",[26],13.5%
same,"viability, T/C",[27],10.7%
same,"viability, T/C",[28],9.81%
same,"viability, T/C",[29],6.85%
same,"viability, T/C",[30],0.99%
same,"viability, T/C",[31],14.2%
same,"viability, T/C",[32],13.7%
same,"viability, T/C",[33],10.6%
same,"viability, T/C",[34],8.67%
same,"viability, T/C",[35],6.98%
same,"viability, T/C",[36],0.78%
COc1cccc2c1C(=O)c1c(O)c3c(c(O)c1C2=O)CC(O)(C(=O)CO)CC3OC1CC(N)C(O)C(C)O1 (centres undefined) + CN(C)c1ccc(Nc2c3ccc(NC(=O)CCN4CCCC4)cc3nc3cc(NC(=O)CCN4CCCC4)ccc23)cc1,pIC50,second compound 0.0316 µM,6.79
same,pIC50,second compound 0.1 µM,6.66
same,pIC50,second compound 0.316 µM,6.68
same,pIC50,second compound 1 µM,6.73
same,pIC50,second compound 3.16 µM,6.75
same,pIC50,second compound 10 µM,6.37
same,"viability, T/C",[1],85.5%
same,"viability, T/C",[2],56.6%
same,"viability, T/C",[3],31.2%
same,"viability, T/C",[4],37.4%
same,"viability, T/C",[5],3.76%
same,"viability, T/C",[6],2.73%
same,"viability, T/C",[7],97.3%
same,"viability, T/C",[8],68.8%
same,"viability, T/C",[9],37.8%
same,"viability, T/C",[10],29.9%
same,"viability, T/C",[11],2.6%
same,"viability, T/C",[12],2.75%
same,"viability, T/C",[13],101%
same,"viability, T/C",[14],67.6%
same,"viability, T/C",[15],34.3%
same,"viability, T/C",[16],33.3%
same,"viability, T/C",[17],1.27%
same,"viability, T/C",[18],2.99%
same,"viability, T/C",[19],85.9%
same,"viability, T/C",[20],67.9%
same,"viability, T/C",[21],29.1%
same,"viability, T/C",[22],30.7%
same,"viability, T/C",[23],0.97%
same,"viability, T/C",[24],3%
same,"viability, T/C",[25],83%
same,"viability, T/C",[26],58.2%
same,"viability, T/C",[27],34.1%
same,"viability, T/C",[28],36.5%
same,"viability, T/C",[29],1.22%
same,"viability, T/C",[30],1.89%
same,"viability, T/C",[31],61.9%
same,"viability, T/C",[32],61.7%
same,"viability, T/C",[33],52.9%
same,"viability, T/C",[34],33.1%
same,"viability, T/C",[35],1.41%
same,"viability, T/C",[36],1.9%
